Columns and labels:
Type in all cases: physicochemical
[1] = Monatin stabilization / degradation observations in beverage, conditions not stated; conditions: for monatin stabilization ability (rank order): rank by number of hydroxyl groups on the aryl ring
[2] = Heat treatment of bottled monatin beverage in thermostatically controlled oven, one week at 110° F.
Method: (§1) The following illustrates specific embodiments of the present invention (i.e., embodiments using EMIQ) but are not intended to limit it. All percentages are by weight unless otherwise stated. Heat treatment of bottled beverage was conducted in a thermostatically controlled oven. UV exposure of bottled beverage was conducted within an Atlas CI 5000 with Xenon arc lamp in a thermostatically controlled oven.
Additional analyses of the lemon/lime (“L/L”) flavored beverages above were conducted to determine formation of lactone (reversible) or lactam (irreversible) from monatin. The accumulation of the two degradation products would reduce sweetness impact over time and reduce consumer acceptance of a product containing a beverage comprising monatin. […] The amounts of ascorbic acid (where indicated) was 333 ppm, and the amount of EMIQ (where indicated) was 7.50 ppm (50 uL of 15% EMIQ as San-Melin AO-3000=7.5 ppm).

[3] = UV exposure of bottled monatin beverage, Atlas CI 5000 with Xenon arc lamp, 24 hours at 86° F.
Method: as §1
Additional analyses of the lemon/lime (“L/L”) flavored beverages above were conducted to determine formation of lactone (reversible) or lactam (irreversible) from monatin.
UV exposure of bottled beverage was conducted within an Atlas CI 5000 with Xenon arc lamp in a thermostatically controlled oven.

Compound: O=C1O[C@H]([C@@H](O)CO)C(O)=C1O [ascorbic acid]
- formation of lactam and color hue change with ascorbic acid ([1]; non-colored carbonated soft drink): results in the formation of lactam, a degradation product of monatin, and an undesirable color hue change
- Color Hue Change, 1 week @ 110° F. ([2]; Lemon/Lime Carbonated Soft Drink, 265 ppm sodium benzoate, 333 ppm ascorbic acid where indicated, 30 ppm CaNa2EDTA, 50 ppm monatin): No
- formation of lactam from monatin ([2]; low pH matrix, heat stress conditions): not ascorbic acid
- protection against pink coloration and off-flavor development ([3]; 24 h of UV exposure): protects against pink coloration and off-flavor development
- Lactam formation ([3]; Cola CSD, 24 h UV exposure, 30 ppm myricitrin, 100 ppm EMIQ, 300 ppm ascorbic acid or none): 2.9 ppm
- Monatin + lactone ([3]; L/L CSD, 24 h UV exposure, 30 ppm myricitrin, 100 ppm EMIQ, 300 ppm ascorbic acid or none): 37.7 ppm
- Color Hue Change, UV 24 hours @ 86° F. ([3]; Lemon/Lime Carbonated Soft Drink, 265 ppm sodium benzoate, 333 ppm ascorbic acid where indicated, 30 ppm CaNa2EDTA, 50 ppm monatin, Yes* = pink to rust color develops): No

Compound: O=C(O)C=Cc1ccccc1 [cinnamic acid]
- monatin stabilization ability (rank order) [1]: caffeic acid (2 hydroxyl groups)>ferulic acid>coumaric acid>cinnamic acid (no hydroxyl groups)

Compound: O=C(O)/C=C/c1ccc(O)c(O)c1 [caffeic acid]
- monatin stabilization ability (rank order) [1]: caffeic acid (2 hydroxyl groups)>ferulic acid>coumaric acid>cinnamic acid (no hydroxyl groups)

Compound: O=C(O)/C=C/c1ccc(O)cc1 [coumaric acid]
- monatin stabilization ability (rank order) [1]: caffeic acid (2 hydroxyl groups)>ferulic acid>coumaric acid>cinnamic acid (no hydroxyl groups)

Compound: COc1cc(/C=C/C(=O)O)ccc1O [ferulic acid]
- monatin stabilization ability (rank order) [1]: caffeic acid (2 hydroxyl groups)>ferulic acid>coumaric acid>cinnamic acid (no hydroxyl groups)

— patent publication US8142829B2, “Beverage composition and method of reducing degradation of monatin” (PepsiCo, Inc., priority 2008, dated 2012)
